In PubChem BioAssay AID1259407 (Chemical Carcinogenesis Research Information System (CCRIS), 2018):
Calls of active or inactive are those of the source. No rule for the calls is given here.

Tested on: CCRIS mutagenicity, Ames/micronucleus/aberration tests
Assay: CCRIS mutagenicity studies
Excerpt: The CCRIS database contains chemical records with carcinogenicity, mutagenicity, tumor promotion, and tumor inhibition test results. It was developed by the National Cancer Institute (NCI). Data are derived from studies cited in primary journals, current awareness tools, NCI reports, and other sources. Test results have been reviewed by experts in carcinogenesis and mutagenesis.
CCRIS provides historical information from the years 1985 - 2011. It is no longer updated.
This is an archive assay for CCRIS mutagenicity studies.

[1] = Test System: AMES SALMONELLA TYPHIMURIUM, Strain/Indicator: TA100, Metabolic Activation: NONE, Method: STANDARD PLATE
[2] = Test System: AMES SALMONELLA TYPHIMURIUM, Strain/Indicator: TA102, Metabolic Activation: NONE, Method: STANDARD PLATE
[3] = Test System: AMES SALMONELLA TYPHIMURIUM, Strain/Indicator: TA97, Metabolic Activation: NONE, Method: STANDARD PLATE
[4] = Test System: AMES SALMONELLA TYPHIMURIUM, Strain/Indicator: TA97, Metabolic Activation: RAT, LIVER, S-9, AROCLOR 1254, Method: STANDARD PLATE
[5] = Test System: AMES SALMONELLA TYPHIMURIUM, Strain/Indicator: TA98, Metabolic Activation: NONE, Method: STANDARD PLATE
[6] = Test System: AMES SALMONELLA TYPHIMURIUM, Strain/Indicator: TA98, Metabolic Activation: RAT, LIVER, S-9, AROCLOR 1254, Method: STANDARD PLATE
[7] = Test System: AMES SALMONELLA TYPHIMURIUM, Strain/Indicator: TA100, Metabolic Activation: RAT, LIVER, S-9, AROCLOR 1254, Method: STANDARD PLATE
[8] = Test System: AMES SALMONELLA TYPHIMURIUM, Strain/Indicator: TA102, Metabolic Activation: RAT, LIVER, S-9, AROCLOR 1254, Method: STANDARD PLATE

CC1(C)CC(O)CC(C)(C)N1[O]
mutagenic call [1]: active; positive
mutagenic call [2]: inactive; negative
mutagenic call (Test System: AMES SALMONELLA TYPHIMURIUM, Strain/Indicator: TA102, Metabolic Activation: XANTHINE OXIDASE, Method: STANDARD PLATE): inactive; negative
mutagenic call (Test System: AMES SALMONELLA TYPHIMURIUM, Strain/Indicator: TA104, Metabolic Activation: NONE, Method: STANDARD PLATE): inactive; negative
mutagenic call (Test System: AMES SALMONELLA TYPHIMURIUM, Strain/Indicator: TA104, Metabolic Activation: XANTHINE OXIDASE, Method: STANDARD PLATE): inactive; negative
mutagenic call (Test System: Mouse lymphoma, Strain/Indicator: L5178Y (tk+/tk-), Metabolic Activation: None, Method: Suspension/plate): active; positive
mutagenic call (Test System: Mouse lymphoma, Strain/Indicator: L5178Y (tk+/tk-), Metabolic Activation: Rat, Liver, S-9, Aroclor 1254, Method: Suspension/plate): active; positive

c1ccc(COC[C@H]2CO2)cc1
mutagenic call [1]: active; positive

COc1ccc(CN(CCN(C)C)c2ccccn2)cc1
mutagenic call [3]: inactive; negative
mutagenic call [4]: inactive; negative
mutagenic call (Test System: AMES SALMONELLA TYPHIMURIUM, Strain/Indicator: TA98, Metabolic Activation: HAMSTER, LIVER, S-9, AROCLOR 1254 (10%), Method: PREINCUBATION): inactive; negative
mutagenic call (Test System: AMES SALMONELLA TYPHIMURIUM, Strain/Indicator: TA98, Metabolic Activation: NONE, Method: PREINCUBATION): inactive; negative
mutagenic call [5]: inactive; negative
mutagenic call (Test System: AMES SALMONELLA TYPHIMURIUM, Strain/Indicator: TA98, Metabolic Activation: RAT, LIVER, S-9, AROCLOR 1254 (10%), Method: PREINCUBATION): inactive; negative
mutagenic call [6]: inactive; negative
mutagenic call (Test System: AMES SALMONELLA TYPHIMURIUM, Strain/Indicator: TA100, Metabolic Activation: HAMSTER, LIVER, S-9, AROCLOR 1254 (10%), Method: PREINCUBATION): inactive; negative
mutagenic call (Test System: AMES SALMONELLA TYPHIMURIUM, Strain/Indicator: TA100, Metabolic Activation: NONE, Method: PREINCUBATION): inactive; negative
mutagenic call [1]: inactive; negative
mutagenic call (Test System: AMES SALMONELLA TYPHIMURIUM, Strain/Indicator: TA100, Metabolic Activation: RAT, LIVER, S-9, AROCLOR 1254 (10%), Method: PREINCUBATION): inactive; negative
mutagenic call [7]: inactive; negative
mutagenic call [2]: inactive; negative
mutagenic call [8]: inactive; negative
mutagenic call (Test System: AMES SALMONELLA TYPHIMURIUM, Strain/Indicator: TA1535, Metabolic Activation: HAMSTER, LIVER, S-9, AROCLOR 1254 (10%), Method: PREINCUBATION): inactive; negative
mutagenic call (Test System: AMES SALMONELLA TYPHIMURIUM, Strain/Indicator: TA1535, Metabolic Activation: NONE, Method: PREINCUBATION): inactive; negative
mutagenic call (Test System: AMES SALMONELLA TYPHIMURIUM, Strain/Indicator: TA1535, Metabolic Activation: RAT, LIVER, S-9, AROCLOR 1254 (10%), Method: PREINCUBATION): inactive; negative
mutagenic call (Test System: AMES SALMONELLA TYPHIMURIUM, Strain/Indicator: TA1537, Metabolic Activation: HAMSTER, LIVER, S-9, AROCLOR 1254 (10%), Method: PREINCUBATION): inactive; negative
mutagenic call (Test System: AMES SALMONELLA TYPHIMURIUM, Strain/Indicator: TA1537, Metabolic Activation: NONE, Method: PREINCUBATION): inactive; negative
mutagenic call (Test System: AMES SALMONELLA TYPHIMURIUM, Strain/Indicator: TA1537, Metabolic Activation: RAT, LIVER, S-9, AROCLOR 1254 (10%), Method: PREINCUBATION): inactive; negative
mutagenic call (Test System: MOUSE LYMPHOMA, Strain/Indicator: L5178Y (TK+/TK-), Metabolic Activation: NONE, Method: SUSPENSION/PLATE): inactive; negative
mutagenic call (Test System: MOUSE LYMPHOMA, Strain/Indicator: L5178Y (TK+/TK-), Metabolic Activation: RAT, LIVER, S-9, AROCLOR 1242 AND 1254 (2:1 MIXTURE), Method: SUSPENSION/PLATE): active; positive

c1cc2c3c(c4c(ccc5ccccc54)cc3c1)C1=C2O1
mutagenic call (Test System: CHINESE HAMSTER V-79, Strain/Indicator: V-79/6-THIOGUANINE, Metabolic Activation: NONE, Method: SUSPENSION/PLATE): active; positive

O=C1C=CCO1
mutagenic call (Test System: AMES SALMONELLA TYPHIMURIUM, Strain/Indicator: TA98, Metabolic Activation: RAT, LIVER, MICROSOMES, PHENOBARBITAL, Method: STANDARD PLATE): inactive; negative
mutagenic call (Test System: AMES SALMONELLA TYPHIMURIUM, Strain/Indicator: TA100, Metabolic Activation: RAT, LIVER, MICROSOMES, PHENOBARBITAL, Method: STANDARD PLATE): inactive; negative

Cc1ccc2nc3n(C)c4ccccc4c(C)c-3c2c1
mutagenic call [4]: active; positive
mutagenic call [6]: active; positive

CCOC(=O)c1[nH]c2ccccc2c1N=Cc1ccc(NC(C)=O)cc1
mutagenic call [3]: active; positive
mutagenic call [4]: inactive; negative
mutagenic call [5]: inactive; negative
mutagenic call [6]: inactive; negative
mutagenic call [1]: inactive; negative
mutagenic call [7]: inactive; negative
mutagenic call [2]: inactive; negative
mutagenic call [8]: inactive; negative

c1cc(-c2ccncc2)ccn1
mutagenic call (Test System: AMES SALMONELLA TYPHIMURIUM, Strain/Indicator: TA97, Metabolic Activation: RAT, LIVER, S-9, PHENOBARBITAL, Method: STANDARD PLATE): inactive; negative
mutagenic call (Test System: AMES SALMONELLA TYPHIMURIUM, Strain/Indicator: TA97, Metabolic Activation: RAT, LIVER, S-9, SODIUM PHENOBARBITAL, Method: PREINCUBATION): active; positive
mutagenic call (Test System: AMES SALMONELLA TYPHIMURIUM, Strain/Indicator: TA98, Metabolic Activation: RAT, LIVER, S-9, PHENOBARBITAL, Method: STANDARD PLATE): inactive; negative
mutagenic call (Test System: AMES SALMONELLA TYPHIMURIUM, Strain/Indicator: TA100, Metabolic Activation: RAT, LIVER, S-9, PHENOBARBITAL, Method: STANDARD PLATE): inactive; negative
mutagenic call (Test System: AMES SALMONELLA TYPHIMURIUM, Strain/Indicator: TA100, Metabolic Activation: RAT, LIVER, S-9, SODIUM PHENOBARBITAL, Method: PREINCUBATION): active; positive
mutagenic call (Test System: AMES SALMONELLA TYPHIMURIUM, Strain/Indicator: TA1535, Metabolic Activation: RAT, LIVER, S-9, PHENOBARBITAL, Method: STANDARD PLATE): inactive; negative
mutagenic call (Test System: AMES SALMONELLA TYPHIMURIUM, Strain/Indicator: TA1537, Metabolic Activation: RAT, LIVER, S-9, PHENOBARBITAL, Method: STANDARD PLATE): active; positive
mutagenic call (Test System: AMES SALMONELLA TYPHIMURIUM, Strain/Indicator: TA1538, Metabolic Activation: RAT, LIVER, S-9, PHENOBARBITAL, Method: STANDARD PLATE): inactive; negative

N[C@@H](CCCCN/C=C/C=O)C(=O)O
mutagenic call (Test System: AMES SALMONELLA TYPHIMURIUM, Strain/Indicator: HISD3052, Metabolic Activation: NONE, Method: STANDARD PLATE): active; positive
